Laboratory results as given in ChEMBL document CHEMBL1122977, “A new class of cardiotonic agents: structure-activity correlations for natural and synthetic analogues of the alkaloid A new class of A new class of cardiotonic agents: structure-activity correlations for natural and synthetic analogues of the alkaloid pumiliotoxin B …” (J Med Chem, 1985).

Experiments:
Details in all cases: Cardiac atrium
Cavia porcellus [1] = species on record: Cavia porcellus; test: Effect on rate of atrial contractions induced by PTX-B in guinea pig; type: functional, organism-based
Cavia porcellus [2] = species on record: Cavia porcellus; test: Effect on rate of atrial contractions induced by PTX-B in guinea pig (control value); type: functional, organism-based
Cavia porcellus [3] = species on record: Cavia porcellus; test: Effect on force of atrial contractions induced by PTX-B in guinea pig; type: functional, organism-based
Cavia porcellus [4] = species on record: Cavia porcellus; test: Effect on force of atrial contractions induced by PTX-B in guinea pig (control value); type: functional

| SMILES | IC50 (Cavia porcellus [1]) [µM] | IC50 (Cavia porcellus [2]) [µM] | IC50 (Cavia porcellus [3]) [µM] | IC50 (Cavia porcellus [4]) [µM] |
| --- | --- | --- | --- | --- |
| COC(=O)C1=C(C)NC(C)=C(C(=O)OC)C1c1ccccc1[N+](=O)[O-] [NIFEDIPINE] | 12 | 0.6 | 6 | 0.4 |
| COc1ccc(CCN(C)CCCC(C#N)(c2ccc(OC)c(OC)c2)C(C)C)cc1OC (stereo not drawn) [VERAPAMIL] | 16 | 0.7 | 10 | 0.8 |
